Laboratory results: patent publication US8097759B2, “Inflammatory cytokine release inhibitor” (Institute of Medicinal Molecular Design, Inc., priority 2000, dated 2012)

System: NF-κB activation
Assay: NF-κB activation reporter assay (pNFκB-Luc luciferase) under TNF-α stimulation
Format: cell-based, human
Settings: Homo sapiens, HepG2 or HeLa cells, TNF-α 40 ng/ml, 4 hours, read-out: The rate of inhibitory activity against NF-κB activation (%); for inhibition at 1 µg/mL: Concentration of the agent: 1 μg/mL; for inhibition at 10 µg/mL: Concentration of the agent: 10 μg/mL

Structure (SMILES) | inhibition at 1 µg/mL [%] | inhibition at 10 µg/mL [%]
O=C(Nc1cc(Cl)cc(Cl)c1)c1cc(Cl)ccc1O [Compound 147] | 84.5 | 96.8
O=C(Nc1cc(Cl)cc(Cl)c1)c1cc(Br)ccc1O [Compound 148] | 77.1 | 92.8
O=C(Nc1cc(Cl)cc(Cl)c1)c1cc(I)ccc1O [Compound 149] | 85.4 | 97.1
O=C(Nc1cc(Cl)cc(Cl)c1)c1cc(Br)cc(Br)c1O [Compound 150] | 91.4 | 95.1
O=C(Nc1cc(Cl)cc(Cl)c1)c1ccc(Cl)cc1O [Compound 151] | -42.8 | 71.8
O=C(Nc1cc(Cl)cc(Cl)c1)c1cc([N+](=O)[O-])ccc1O [Compound 152] | -56.8 | 70.6
Cc1ccc(O)c(C(=O)Nc2cc(Cl)cc(Cl)c2)c1 [Compound 153] | 49.1 | 88.7
COc1ccc(O)c(C(=O)Nc2cc(Cl)cc(Cl)c2)c1 [Compound 154] | -31 | 48.2
O=C(Nc1cc(Cl)c(Cl)c(Cl)c1)c1cc(Br)ccc1O [Compound 155] | 85.6 | 94.1
O=C(Nc1cc(Cl)c(O)c(Cl)c1)c1cc(Br)ccc1O [Compound 156] | 7.3 | 74.9
O=C(Nc1c(F)c(F)c(F)c(F)c1F)c1cc(Cl)ccc1O [Compound 157] | 86.2 | 98.1
O=C(Nc1cc([N+](=O)[O-])cc([N+](=O)[O-])c1)c1cc(Br)ccc1O [Compound 158] | 91 | 95.6
CC(C)(C)c1ccc(C(C)(C)C)c(NC(=O)c2cc(Cl)ccc2O)c1 [Compound 159] | 89.1 | 96.3
Cc1cc(C)cc(NC(=O)c2cc(Br)ccc2O)c1 [Compound 161] | 86.3 | 92.6
CC(C)(C)c1cc(NC(=O)c2cc(Br)ccc2O)cc(C(C)(C)C)c1 [Compound 163] | 70.9 | 82
O=C(Nc1cccc(-c2ccccc2)c1)c1cc(Cl)ccc1O [Compound 165] | 88.2 | 95.1
COc1ccc(-c2ccccc2)cc1NC(=O)c1cc(Cl)ccc1O [Compound 166] | 82.4 | 97.9
COc1ccc(OC)c(NC(=O)c2cc(Br)ccc2O)c1 [Compound 167] | 32.4 | 95.7

Structure (SMILES) | inhibition at 1 µg/mL [%] | inhibition at 10 µg/mL [%]
COc1cc(NC(=O)c2cc(Br)ccc2O)cc(OC)c1 [Compound 168] | 38.3 | 96.8
CC(=O)c1cccc(NC(=O)c2cc(Cl)ccc2O)c1 [Compound 169] | 14.5 | 88.1
O=C(Nc1nccs1)c1cc(Br)ccc1O [Compound 180] | -23.1 | 42.8
O=C(Nc1nc(C(F)(F)F)c(Br)s1)c1cc(Br)ccc1O [Compound 182] | 85.3 | 94.4
CC(C)(C)c1nc(NC(=O)c2cc(Br)ccc2O)sc1C#N [Compound 184] | 20 | 93.8
Cc1cnc(NC(=O)c2cc(Br)ccc2O)s1 [Compound 185] | -1.5 | 69.7
Cc1nc(NC(=O)c2cc(Br)ccc2O)sc1C [Compound 187] | 4.6 | 67.2
Cc1sc(NC(=O)c2cc(Br)ccc2O)nc1-c1ccccc1 [Compound 188] | 83.6 | 94.4
Cc1nc(NC(=O)c2cc(Br)ccc2O)sc1-c1cccc(C(F)(F)F)c1 [Compound 190] | -32.4 | 
CCc1nc(NC(=O)c2cc(Br)ccc2O)sc1-c1ccccc1 [Compound 192] | 28.8 | 87.6
O=C(Nc1nc(-c2ccccc2)cs1)c1cc(Br)ccc1O [Compound 202] | -41.8 | 78.8
O=C(O)Cc1sc(NC(=O)c2cc(Br)ccc2O)nc1-c1ccccc1 [Compound 203] | 2.4 | 72.1
O=C(Nc1nc(-c2ccccc2)c(-c2ccccc2)s1)c1cc(Br)ccc1O [Compound 204] | -5.3 | 67
O=C(Nc1nc(Cc2ccccc2)c(-c2ccccc2)s1)c1cc(Br)ccc1O [Compound 205] | 79.7 | 95
O=C(Nc1nc(C(F)(F)F)c(-c2ccccc2)s1)c1cc(Br)ccc1O [Compound 206] | 85.1 | 89.4
CCOC(=O)c1sc(NC(=O)c2cc(Br)ccc2O)nc1C(F)(F)F [Compound 216] | 87.6 | 96.5
CCOC(=O)c1sc(NC(=O)c2cc(-n3cccc3)ccc2O)nc1-c1ccccc1 [Compound 222] | 74 | 90.1
